The values that follow come from patent publication US10947252B2, “Inhibitors of KEAP1-Nrf2 protein-protein interaction” (Janssen Pharmaceutica NV, priority 2018, dated 2021).

Structures can show the parent of a compound that is named as a salt. Where only a bound is given, the exact number is not on record here.

For assay [1], the system named is Glo-Response ARE-luc2P HEK293 cell line. Nature of the assay: ARE luciferase reporter cell-based assay.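 Note: luciferase signal tracks Nrf2 activation of the ARE once compounds disrupt KEAP1-Nrf2 binding, read with One-Glo reagent, DMSO serving as low control.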 The settings on record: Homo sapiens, HEK293, 24 h, average of results obtained. In general terms: A reporter such as luciferase makes a cellular process visible.
Assay [2] addresses Kelch domain of human KEAP1 (321-624 aa) (Homo sapiens (Human), UniProt Q14145). Nature of the assay: KEAP1 KELCH ThermoFluor binding assay.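 Note: Ligand-induced melting temperature shift of E. coli-expressed KEAP1 Kelch protein, Kd estimated from concentration-response curves of ΔTm.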 The conditions noted are these: KEAP Kelch […], 1,8-ANS, pH 7.0, average of results obtained, read-out: Tf Kd. A general note: In DSF a fluorescence change marks the thermal transition of the protein.

Kelch domain of human KEAP1 (321-624 aa), sequence (Q14145 321-624): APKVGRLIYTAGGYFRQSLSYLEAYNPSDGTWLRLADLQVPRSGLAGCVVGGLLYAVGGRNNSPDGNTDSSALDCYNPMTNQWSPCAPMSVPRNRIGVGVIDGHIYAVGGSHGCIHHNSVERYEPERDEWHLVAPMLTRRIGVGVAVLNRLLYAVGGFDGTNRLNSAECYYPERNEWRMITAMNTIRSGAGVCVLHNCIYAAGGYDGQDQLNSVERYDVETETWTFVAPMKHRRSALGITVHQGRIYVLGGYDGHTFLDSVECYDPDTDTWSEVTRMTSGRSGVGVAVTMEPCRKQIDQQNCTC

`Cc1ccc(C(CC(=O)O)c2ccn3c(C(F)F)nnc3c2C)cc1CN1C[C@H]2COCCN2c2ncccc2S1(=O)=O` (stereo in doubt) [Example 460, 3-(3-(Difluoromethyl)-8-methyl-[1,2,4]triazolo[4,3-a]pyridin-7-yl)-3-(3-(((*S)-5,5-dioxido-7a,8,10,11-tetrahydro-[1,4]oxazino[3,4-d]pyrido[2,3-f][1,2,5]thiadiazepin-6(7H)-yl)methyl)-4-methylphenyl)propanoic Acid]: in assay [1], the EC50 – broadly, the midpoint of the concentration-response curve – worked out at 119 nM. For the same molecule, the Kd (usually a measure of binding affinity in units of concentration) in assay [2] came out at 2.73 nM.

For `Cc1ccc(C(CC(=O)O)c2ccn3c(C(F)F)nnc3c2C)cc1CN1C[C@]2(C)CCCN2c2ncccc2S1(=O)=O` (stereo in doubt) [Example 475, 3-(3-(Difluoromethyl)-8-methyl-[1,2,4]triazolo[4,3-a]pyridin-7-yl)-3-(4-methyl-3-(((*S)-7a-methyl-5,5-dioxido-7a,8,9,10-tetrahydropyrido[2,3-f]pyrrolo[2,1-d][1,2,5]thiadiazepin-6(7H)-yl)methyl)phenyl)propanoic Acid], in assay [1], the response was half-maximal at 406 nM (EC50). The Kd in assay [2] was under 1 nM.

In the case of `Cc1ccc(C(CC(=O)O)c2ccn3c(C(F)(F)F)nnc3c2C)nc1CN1C[C@@H]2CCCCN2c2ncccc2S1(=O)=O` (stereo in doubt) [Example 478, 3-(6-(((*S)-5,5-Dioxido-7,7a,8,9,10,11-hexahydro-6H-dipyrido[2,1-d:2′,3′-f][1,2,5]thiadiazepin-6-yl)methyl)-5-methylpyridin-2-yl)-3-(8-methyl-3-(trifluoromethyl)-[1,2,4]triazolo[4,3-a]pyridin-7-yl)propanoic Acid], the EC50 in assay [1] worked out at 57.6 nM. Besides, in assay [2], the Kd is under 1 nM.

`Cc1cnc2c(c1)S(=O)(=O)N(Cc1nc(C(CC(=O)O)c3ccn4c(C(F)(F)F)nnc4c3C)ccc1C)C[C@@H]1CCCCN21` (stereo in doubt) [Example 487, 3-(8-Methyl-3-(trifluoromethyl)-[1,2,4]triazolo[4,3-a]pyridin-7-yl)-3-(5-methyl-6-(((*S)-3-methyl-5,5-dioxido-7,7a,8,9,10,11-hexahydro-6H-dipyrido[2,1-d:2′,3′-f][1,2,5]thiadiazepin-6-yl)methyl)pyridin-2-yl)propanoic Acid]: a half-maximal response in assay [1] (EC50) required 18.3 nM. Besides, in assay [2], the Kd was under 1 nM.

For `Cc1cnc2c(c1)S(=O)(=O)N(Cc1nc(C(CC(=O)O)c3ccn4c(C(F)(F)F)nnc4c3C)ccc1C)C[C@H]1CCCCN21` (stereo in doubt) [Example 490, 3-(8-Methyl-3-(trifluoromethyl)-[1,2,4]triazolo[4,3-a]pyridin-7-yl)-3-(5-methyl-6-(((*R)-3-methyl-5,5-dioxido-7,7a,8,9,10,11-hexahydro-6H-dipyrido[2,1-d:2′,3′-f][1,2,5]thiadiazepin-6-yl)methyl)pyridin-2-yl)propanoic Acid], in assay [1], the EC50 was 5.85 nM. The Kd in assay [2] is under 1 nM.

In assay [1], `Cc1ccc(C(CC(=O)O)c2ccn3c(C(F)(F)F)nnc3c2C)nc1CN1C[C@@H]2CCCCN2c2ncc(F)cc2S1(=O)=O` (stereo in doubt) [Example 496, 3-(6-(((*S)-3-Fluoro-5,5-dioxido-7,7a,8,9,10,11-hexahydro-6H-dipyrido[2,1-d:2′,3′-f][1,2,5]thiadiazepin-6-yl)methyl)-5-methylpyridin-2-yl)-3-(8-methyl-3-(trifluoromethyl)-[1,2,4]triazolo[4,3-a]pyridin-7-yl)propanoic Acid] showed an EC50 of 7.65 nM. Further, the Kd in assay [2] was under 1 nM.

Turning to `Cc1cnc2c(c1)S(=O)(=O)N(Cc1cc(C(CC(=O)O)c3ccn4c(C(F)F)nnc4c3C)ccc1C)C[C@@H]1CCCCN21` (stereo in doubt) [Example 499, 3-(3-(Difluoromethyl)-8-methyl-[1,2,4]triazolo[4,3-a]pyridin-7-yl)-3-(4-methyl-3-(((*S)-3-methyl-5,5-dioxido-7,7a,8,9,10,11-hexahydro-6H-dipyrido[2,1-d:2′,3′-f][1,2,5]thiadiazepin-6-yl)methyl)phenyl)propanoic Acid], the EC50 in assay [1] amounted to 12.8 nM. In addition, the Kd in assay [2] was under 1 nM.

`Cc1ccc(C(CC(=O)O)c2ccn3c(C(F)F)nnc3c2C)cc1CN1C[C@H]2CCCN2c2ncc(C#N)cc2S1(=O)=O` (stereo in doubt) [Example 539, 3-(3-(((*R)-3-Cyano-5,5-dioxido-7a,8,9,10-tetrahydropyrido[2,3-f]pyrrolo[2,1-d][1,2,5]thiadiazepin-6(7H)-yl)methyl)-4-methylphenyl)-3-(3-(difluoromethyl)-8-methyl-[1,2,4]triazolo[4,3-a]pyridin-7-yl)propanoic Acid]: the EC50 in assay [1] turned out to be 76 nM. In addition, the Kd in assay [2] was under 1 nM.

Consider `Cc1ccc(C(CC(N)=O)c2ccn3c(C(F)(F)F)nnc3c2C)cc1CN1C[C@@H]2CCCCN2c2ncccc2S1(=O)=O` (stereo in doubt) [Example 547, 3-(3-(((*S)-5,5-Dioxido-7,7a,8,9,10,11-hexahydro-6H-dipyrido[2,1-d:2′,3′-f][1,2,5]thiadiazepin-6-yl)methyl)-4-methylphenyl)-3-(8-methyl-3-(trifluoromethyl)-[1,2,4]triazolo[4,3-a]pyridin-7-yl)propanamide], for which, in assay [1], the midpoint of the response, the EC50, lay at 9640 nM. For the same molecule, the Kd in assay [2] is 602 nM.

Regarding `Cc1ccc([C@@H](c2ccn3c(C(F)(F)F)nnc3c2C)C(C)(C)C(=O)O)cc1CN1CC2(CCOCC2)Oc2nc(OC(C)CN3CCCCC3)c(C)cc2S1(=O)=O` (stereo in doubt) [Example 600, (*S)-2,2-Dimethyl-3-(4-methyl-3-((8′-methyl-1′,1′-dioxido-7′-((1-(piperidin-1-yl)propan-2-yl)oxy)-2,3,5,6-tetrahydrospiro[pyran-4,4′-pyrido[2,3-b][1,4,5]oxathiazepin]-2′,(3′H)-yl)methyl)phenyl)-3-(8-methyl-3-(trifluoromethyl)-[1,2,4]triazolo[4,3-a]pyridine-7-yl)propanoic Acid], the response in assay [1] was half-maximal at 4.58 nM (EC50). Further, the Kd in assay [2] was under 1 nM.

`Cc1ccc(C(CC(=O)O)c2cc(OC3CC3)c3c(c2)nnn3C)cc1CN1C[C@H]2CCCN2c2ncccc2S1(=O)=O` (stereo partly drawn) [Example 4, 3-(7-Cyclopropoxy-1-methyl-1H-benzo[d][1,2,3]triazol-5-yl)-3-(3-(((R)-5,5-dioxido-7a,8,9,10-tetrahydropyrido[2,3-f]pyrrolo[2,1-d][1,2,5]thiadiazepin-6(7H)-yl)methyl)-4-methylphenyl)propanoic acid] had an EC50 in assay [1] of 79 nM. Further, in assay [2], the Kd was 0.24 nM.

`CCn1nnc2c(C)c(C(CC(=O)O)c3ccc(C)c(CN4C[C@H]5CCCN5c5ncccc5S4(=O)=O)c3)ccc21` (stereo partly drawn) [Example 20, 3-(3-(((R)-5,5-Dioxido-7a,8,9,10-tetrahydropyrido[2,3-f]pyrrolo[2,1-d][1,2,5]thiadiazepin-6(7H)-yl)methyl)-4-methylphenyl)-3-(1-ethyl-4-methyl-1H-benzo[d][1,2,3]triazol-5-yl)propanoic Acid and its Trifluoroacetic Acid Salt] showed an EC50 in assay [1] of 6.3 nM. In addition, in assay [2], the Kd amounted to 0.081 nM.

Consider `Cc1ccc(C(CC(=O)O)c2ccn3c(C(F)F)nnc3c2C)cc1CN1CC2CCCCN2c2ncc(C#N)cc2S1(=O)=O` (centres unmarked) [Example 28, 3-(3-((3-Cyano-5,5-dioxido-7,7a, 8,9,10,11-hexahydro-6H-dipyrido[2,1-d:2′,3′-f][1,2,5]thiadiazepin-6-yl)methyl)-4-methylphenyl)-3-(3-(difluoromethyl)-8-methyl-[1,2,4]triazolo[4,3-a]pyridin-7-yl)propanoic Acid], for which a half-maximal effect in assay [1] (EC50) was put at 23.5 nM. Also, the Kd in assay [2] is under 1 nM.

`Cc1ccc(C(CC(=O)O)c2ccn3c(C(F)(F)F)nnc3c2C)nc1CN1CC2CCCCN2c2ncc(C#N)cc2S1(=O)=O` (centres unmarked) [Example 33, 3-(6-((3-Cyano-5,5-dioxido-7,7a,8,9,10,11-hexahydro-6H-dipyrido[2,1-d:2′,3′-f][1,2,5]thiadiazepin-6-yl)methyl)-5-methylpyridin-2-yl)-3-(8-methyl-3-(trifluoromethyl)-[1,2,4]triazolo[4,3-a]pyridin-7-yl)propanoic Acid] had an EC50 in assay [1] of 30.6 nM. Besides, in assay [2], the Kd is under 1 nM.

As to `Cc1ccc(C(c2ccn3c(C(F)(F)F)nnc3c2C)C(C)(C)C(=O)O)cc1CN1CC2(CCOCC2)Oc2nc(OCCCO)ccc2S1(=O)=O` (centres unmarked) [Example 49, 3-(3-((7′-(3-Hydroxypropoxy)-1′,1′-dioxido-2,3,5,6-tetrahydrospiro[pyran-4,4′-pyrido[2,3-b][1,4,5]oxathiazepin]-2′(3′H)-yl)methyl)-4-methylphenyl-2,2′-dimethyl-3-(8-methyl-3-trifluoromethyl)-[1,2,4]triazolo[4,3-a]pyridine-7-yl)propanoic Acid], a half-maximal response in assay [1] (EC50) required 71.9 nM. Also, in assay [2], the Kd was under 1 nM.

Regarding `Cc1ccc(C(CC(=O)O)c2ccc3c(nnn3CC3CC3)c2C(F)F)cc1CN1CC2CCCN2c2ncccc2S1(=O)=O` (centres unmarked) [Example 65], in assay [1], the EC50 worked out at 360 nM. Further, the Kd in assay [2] was determined as 2.5 nM.

`Cc1ccc(C(CC(=O)O)c2ccc3c(nnn3CC3CC3)c2C)cc1CN1CC2(COC2)Oc2ncccc2S1(=O)=O` (centres unmarked) [Example 67]: the midpoint of the response in assay [1], the EC50, lay at 23 nM. Besides, the equilibrium dissociation constant (Kd) in assay [2] came out at 0.34 nM.

`Cc1ccc(C(CC(=O)O)c2ccc3c(nnn3C)c2C(F)F)cc1CN1CC2CCCN2c2ncccc2S1(=O)=O` (centres unmarked) [Example 71]: in assay [1], the EC50 is 1160 nM. The Kd in assay [2] turned out to be 2.6 nM.

In assay [1], `Cc1ccc(C(CC(=O)O)c2ccc3c(nnn3CC3CC3)c2C)cc1CN1CC2(COC2)Oc2ccccc2S1(=O)=O` (centres unmarked) [Example 74, 3-(1-(Cyclopropylmethyl)-4-methyl-1H-benzo[d][1,2,3]triazol-5-yl)-3-(3-((1′,1′-dioxidospiro[benzo[b][1,4,5]oxathiazepin-4,3′-oxetan]-2,(3H)-yl)methyl)-4-methylphenyl)propanoic Acid] returned an EC50 of 24 nM. In assay [2], the Kd is under 1 nM.
